The source of these data is ChEMBL document CHEMBL5260825, “Chemical Constituents of Bryophytes: Structures and Biological Activity” (J Nat Prod, 2018).

Data set [1] concerns Pyricularia oryzae. In words: Antifungal activity against Pyricularia oryzae assessed as inhibition of microbial growth. It is filed as functional, organism-based.
Data set [2] deals with Candida albicans. In words: Antifungal activity against Candida albican ATCC10231 assessed as inhibition of fungal growth by measuring minimal inhibitory quantity by microdilution method. The data set is classed as functional. (Broth dilution looks for growth in wells or tubes with falling amounts of substance.)
Data set [3] concerns Candida albicans. In words: Antifungal activity against Candida albican ATCC10231 assessed as inhibition of fungal growth by microdilution method. The data set is classed as functional.
Data set [4] relates to Trypanosoma brucei brucei. In words: […] activity against Trypanosoma brucei brucei GUTat 3.1 assessed as inhibition of parasite growth measured after 72 hrs by alamar blue assay. It is filed as functional, organism-based. A general note: Alamar Blue is a resazurin reagent that responds to reducing activity.
Data set [5] concerns Zymoseptoria tritici. In words: Antifungal activity against Zymoseptoria tritici assessed as inhibition of microbial growth by microtiter plate based analysis. The data set is classed as functional, organism-based.
The subject of data set [6] is Phytophthora infestans. In words: Antifungal activity against Phytophthora infestans assessed as inhibition of microbial growth by microtiter plate based analysis. It is filed as functional, organism-based.
Data set [7] relates to HT-29. As to the kind of experiment: Antiproliferative activity against human HT-29 cells assessed as cell growth inhibition. The data set is classed as functional, cell-based. The note with it: read-out: ED50 (the source's name).
Data set [8] concerns RPMI-7951. As to the kind of experiment: Antiproliferative activity against human RPMI-7951 cells assessed as cell growth inhibition. The data set is classed as functional. As to conditions: read-out: ED50 (the source's name).
Data set [9] relates to U-251. In words: Antiproliferative activity against human U-251MG cells assessed as cell growth inhibition. It is filed as functional. As to conditions: read-out: ED50 (the source's name).
For data set [10], the system named is Candida albicans. As to the kind of experiment: Antifungal activity against Candida albicans assessed as inhibition of fungal growth by MTT method. The data set is classed as functional.
The subject of data set [11] is HL-60. In words: Antiproliferative activity against human HL-60 cells assessed as cell growth inhibition. It is filed as functional, cell-based.
In data set [12] the test system is Staphylococcus aureus. In words: Antibacterial activity against Staphylococcus aureus assessed as inhibition of bacterial growth by agar diffusion method. The data set is classed as functional. On the technique in general: A growth-free zone around the sample is the usual read-out of agar diffusion tests.
Data set [13] deals with RAW264.7. In words: Inhibition of LPS-induced NO production in mouse RAW264.7 cells incubated for 24 hrs by Griess reagent based assay. It is filed as functional, cell-based. As to conditions: RAW264.7, 24 h.
A short description of data set [14]: Antioxidant activity assessed as DPPH radical scavenging activity. The data set is classed as functional.
Data set [15] deals with Bacillus subtilis. As to the kind of experiment: Antibacterial activity against Bacillus subtilis assessed as inhibition of bacterial growth. The data set is classed as functional.
Data set [16] has as its system Candida albicans. In words: Antifungal activity against Candida albicans assessed as inhibition of fungal growth by MTT assay. The data set is classed as functional.
Data set [17] deals with Trichophyton mentagrophytes. As to the kind of experiment: Antifungal activity against Trichophyton mentagrophytes assessed as inhibition of microbial growth. The data set is classed as functional.
Data set [18] deals with Cathepsin B (Homo sapiens) (UniProt P07858). In words: Inhibition of Cathepsin B (unknown origin) at 0.00001 M relative to control. The note with it: dose 10 µM.
Data set [19] concerns the target Procathepsin L (Homo sapiens) (UniProt P07711). In words: Inhibition of Cathepsin L (unknown origin) at 0.00001 M relative to control. As to conditions: dose 10 µM.
Data set [20] concerns Panel NCI-60 (60 carcinoma cell lines). In words: Antiproliferative activity against human Panel NCI-60 (60 carcinoma cell lines) assessed as cell growth inhibition. It is filed as functional.
Data set [21] has as its system P388. As to the kind of experiment: Antiproliferative activity against mouse P388 cells assessed as cell growth inhibition. The data set is classed as functional, cell-based.
The nature of data set [22]: Toxicity in brine shrimp assessed as lethality. The note with it: artemia salina.
Data set [23] concerns A549. As to the kind of experiment: Antiproliferative activity against human A549 cells assessed as cell growth inhibition. The data set is classed as functional. The note with it: read-out: ED50 (the source's name).
Data set [24] deals with Cladosporium cucumerinum. As to the kind of experiment: Antifungal activity against Cladosporium cucumerinum assessed as inhibition of microbial growth by bioautographic TLC method. The data set is classed as functional.

What is called IC50 is the point on the concentration scale where inhibition reaches its midpoint. By inhibition is commonly meant how much of the control response was suppressed. Low readings indicate a response near the control, high ones a response far below the control. The term GI50 denotes the concentration that inhibits growth by half. For orientation: LC50 means the concentration lethal to half of the exposed cells or organisms.

≈ marks a conversion by molar mass, not a printed value. Where “and” joins values, the source holds several entries; their conditions need not be identical. Identical values can stand only once.

Sequence of Procathepsin L (Homo sapiens) (P07711 114-333 limits assumed): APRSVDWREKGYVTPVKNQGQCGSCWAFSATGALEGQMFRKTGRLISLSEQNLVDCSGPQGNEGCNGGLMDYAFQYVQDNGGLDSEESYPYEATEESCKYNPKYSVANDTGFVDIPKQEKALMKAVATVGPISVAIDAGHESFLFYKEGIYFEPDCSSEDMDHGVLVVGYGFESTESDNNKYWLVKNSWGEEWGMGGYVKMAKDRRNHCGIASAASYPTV

In the case of `Cc1ccc2c(c1O)[C@@H](C(C)C)CC[C@H]2C`, the IC50 in data set [1] stood at 1.7 µg/mL.

With `Oc1cc2ccc1Oc1cccc(c1)CCc1ccc(cc1)Oc1cc(ccc1O)CC2`, the MIC stood at 0.25 µg in [2] and 16 µg/mL in data set [3].

As for `CC1=CCC[C@]2(C)CC[C@@H](C(C)(C)O)C[C@@H]12`, in data set [4] (GUTat 3.1, 72 h, read-out: EC50), the EC50 is 0.45 µM.

As to `CC1=CC[C@H]2C(C)(C)CCC[C@]2(C)[C@H]1C=O`, the concentration for half-maximal inhibition (IC50) was 17.6 µg/mL in [5] and less than 0.03 µg/mL in data set [6].

For the molecule `COc1cc(OC)c2c3c1C(=O)C[C@@H]1c4ccccc4O[C@@H](c4cccc(O)c4-2)[C@H]31`, the EC50 stood at 1 µg/mL (≈ 2.5 µM) in [7], 1 µg/mL (≈ 2.5 µM) in [8] and 2 µg/mL (≈ 4.99 µM) in data set [9].

Turning to `CO[C@@H]1CC[C@]2(C)C3CCC4C(=CCC5C(C)(C)[C@H](O)CC[C@]45C)C[C@]3(C)CC[C@H]2C1(C)C` (some centres not stated), in data set [10], the MIC came to 2 µg/mL (≈ 4.38 µM).

As for `Cc1cc(O)c(O)c([C@@]2(C)CCCC2(C)C)c1`, the IC50 was found to be 1.4 µg/mL (≈ 5.97 µM) in [11], 4.1 µM in data set [13] and 1.9 µg/mL (≈ 8.11 µM) in [14]. For the same molecule, the “diameter of the inhibition zone (DIZ)” value in [12] was found to be 17 mm. For the same molecule, in [15], the MIC turned out to be 2 µg/mL (≈ 8.53 µM).

Take `Cc1ccc(C(=O)Nc2ccc(S(=O)(=O)O)c3cc(S(=O)(=O)O)cc(S(=O)(=O)O)c23)cc1NC(=O)c1cccc(NC(=O)Nc2cccc(C(=O)Nc3cc(C(=O)Nc4ccc(S(=O)(=O)O)c5cc(S(=O)(=O)O)cc(S(=O)(=O)O)c45)ccc3C)c2)c1` [SURAMIN]: in [4] (GUTat 3.1, time 72 hrs, read-out: ED50 (the source's name)), the EC50 stood at 1.5 µg/mL.

On to `COC(=O)c1c(C)cc(O)c(C)c1O` [ATRARIC ACID], for which the MIC in data set [10] worked out at 0.6 µg/mL (≈ 3.06 µM).

Turning to `Oc1cc2ccc1Oc1cccc(c1)CCc1ccc(O)c(c1)Oc1ccc(cc1)CC2`, the MID in [16] is 0.25 µg/mL. Further, the MIC in [17] was determined as 1 µg/mL; in data set [15], 1.5 µg/mL (≈ 3.53 µM).

Consider `C=C1C(=O)O[C@@H]2[C@H]3C(C)=C[C@H]4OC(=O)C(=CC[C@@H]12)[C@@H]34`, for which the values for the inhibition in data set [18] and in [19] were 24.7% and 13.4%, respectively.

Consider `C=C1C(=O)[C@]23O[C@@H]2[C@H]1CCC(=O)[C@]1(C)CCCC(C)(C)[C@H]1C[C@H]3O`, for which, in [20], the GI50 was 2.5 µM. Further, in data set [21], the 50% growth inhibitory concentration (GI50) was 0.27 µg/mL and 800 nM; the half-maximal inhibitory concentration (IC50) was determined as 0.27 µg/mL (≈ 0.812 µM).

Take `CC(=O)N1CCN(c2ccc(OCC3COC(Cn4ccnc4)(c4ccc(Cl)cc4Cl)O3)cc2)CC1` (configuration not stated) [KETOCONAZOLE]: in data set [22], the LC50 amounted to 14.9 ppm.

In the case of `COc1cc(OC)c2c3c1-c1c(O)cccc1[C@@H]1Oc4ccccc4[C@@H](C[C@@H]2OC)[C@@H]31`, the EC50 in [8] and in [23] was 1 µg/mL (≈ 2.4 µM) each time.

On to `CC1(C)CCC[C@]1(C)c1cc(CCc2cc(O)c(O)c([C@@]3(C)CCCC3(C)C)c2)cc(O)c1O`, for which the results for the IC50 in [11], in data set [13] and in [14] were 2.5 µg/mL (≈ 5.36 µM), 4.1 µM and 2 µg/mL (≈ 4.29 µM), respectively. Further, in data set [15], the MIC amounted to 2 µg/mL (≈ 4.29 µM).

Regarding `COc1ccc(CCc2c(Cl)ccc(O)c2Cl)cc1Cl`, the LC50 in [22] was 0.42 ppm.

For `C=C1CC[C@]2(C)[C@@H](O)[C@H]1[C@]1(C)CCC[C@@]12C`, in data set [6], the concentration for half-maximal inhibition (IC50) worked out at 0.1 µg/mL.

`C=C1CC[C@H]2C(=C)CC[C@@H]3[C@H](OC(=O)[C@@H]3C)[C@@H]12`: the MIC in data set [24] was determined as 3 µg/mL.

For `Oc1ccc2cc1Oc1ccc(cc1)CCc1cccc(c1)Oc1c(O)cccc1CC2`, the figures for the inhibition in data set [18] and in data set [19] were 93% and 95%, respectively.
